These results are taken from ChEMBL document CHEMBL4680347, “Discovery of novel 1,3,5-triazine derivatives as potent inhibitor of cervical cancer via dual inhibition of PI3K/mTOR” (Bioorg Med Chem, 2021).

In the first assay the target is Phosphatidylinositol 4,5-bisphosphate 3-kinase catalytic subunit alpha isoform (Homo sapiens, UniProt P42336). The assay can be described thus: Inhibition of PI3Kalpha (unknown origin) measured after 1 hr by ADP-glo plus luminescence assay.
Sequence of Phosphatidylinositol 4,5-bisphosphate 3-kinase catalytic subunit alpha isoform (P42336 whole entry, canonical isoform): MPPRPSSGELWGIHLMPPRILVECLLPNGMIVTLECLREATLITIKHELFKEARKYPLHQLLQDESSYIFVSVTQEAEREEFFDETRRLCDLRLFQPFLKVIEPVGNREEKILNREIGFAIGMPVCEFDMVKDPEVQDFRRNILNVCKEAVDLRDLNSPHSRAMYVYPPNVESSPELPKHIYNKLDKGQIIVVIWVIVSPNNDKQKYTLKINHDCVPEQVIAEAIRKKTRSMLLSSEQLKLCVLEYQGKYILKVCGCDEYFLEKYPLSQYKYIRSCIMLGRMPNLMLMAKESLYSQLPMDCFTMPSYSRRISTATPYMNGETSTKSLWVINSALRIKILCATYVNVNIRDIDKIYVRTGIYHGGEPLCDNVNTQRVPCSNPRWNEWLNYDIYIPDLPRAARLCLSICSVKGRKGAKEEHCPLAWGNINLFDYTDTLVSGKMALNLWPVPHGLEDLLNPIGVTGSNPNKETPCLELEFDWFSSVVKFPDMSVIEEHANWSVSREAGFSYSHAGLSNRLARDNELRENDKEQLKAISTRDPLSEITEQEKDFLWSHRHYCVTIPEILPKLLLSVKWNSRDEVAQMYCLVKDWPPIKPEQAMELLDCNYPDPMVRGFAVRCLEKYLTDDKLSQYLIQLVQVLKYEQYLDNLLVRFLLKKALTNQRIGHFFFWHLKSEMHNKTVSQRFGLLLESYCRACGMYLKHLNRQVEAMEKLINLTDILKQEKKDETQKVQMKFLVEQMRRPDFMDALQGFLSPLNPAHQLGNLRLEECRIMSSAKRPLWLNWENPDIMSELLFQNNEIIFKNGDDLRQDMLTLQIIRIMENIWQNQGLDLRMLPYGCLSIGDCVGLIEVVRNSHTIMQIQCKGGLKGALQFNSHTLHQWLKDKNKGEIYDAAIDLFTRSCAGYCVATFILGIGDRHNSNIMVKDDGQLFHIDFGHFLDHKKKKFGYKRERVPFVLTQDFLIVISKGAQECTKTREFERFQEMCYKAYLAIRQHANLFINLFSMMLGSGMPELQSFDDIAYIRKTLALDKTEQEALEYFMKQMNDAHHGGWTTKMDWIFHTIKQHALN
With `COc1cccc(S(=O)(=O)N2CCN(c3nc(NCCN4CCOCC4)nc(N4CCOCC4)n3)CC2)c1`, the IC50 turned out to be 24.6 nM.
`O=S(=O)(c1ccc(Cl)cc1)N1CCN(c2nc(NCCN3CCOCC3)nc(N3CCOCC3)n2)CC1`: the IC50 worked out at 30.9 nM.
Turning to `O=S(=O)(c1ccc(F)cc1)N1CCN(c2nc(NCCN3CCOCC3)nc(N3CCOCC3)n2)CC1`, the 50% inhibitory concentration (IC50) was 88 nM.
On to `O=S(=O)(c1ccccc1)N1CCN(c2nc(NCCN3CCOCC3)nc(N3CCOCC3)n2)CC1`, for which the IC50 stood at 40.6 nM.
For the compound `Cc1ccccc1S(=O)(=O)N1CCN(c2nc(NCCN3CCOCC3)nc(N3CCOCC3)n2)CC1`, the IC50 was found to be 32 nM.
Regarding `O=S(=O)(c1cccc(F)c1)N1CCN(c2nc(NCCN3CCOCC3)nc(N3CCOCC3)n2)CC1`, the IC50 stood at 110 nM.
On the same count and under the same terms, the value for `O=[N+]([O-])c1cccc(S(=O)(=O)N2CCN(c3nc(NCCN4CCOCC4)nc(N4CCOCC4)n3)CC2)c1` was 38.9 nM; that for `Cc1cccc(S(=O)(=O)N2CCN(c3nc(NCCN4CCOCC4)nc(N4CCOCC4)n3)CC2)c1` was 18.7 nM; that for `COc1ccccc1S(=O)(=O)N1CCN(c2nc(NCCN3CCOCC3)nc(N3CCOCC3)n2)CC1` was 39.7 nM.
`Cc1ccc(S(=O)(=O)N2CCN(c3nc(NCCN4CCOCC4)nc(N4CCOCC4)n3)CC2)cc1`: the IC50 is 6.03 nM.
Same read-out and setting: under `O=S(=O)(c1ccccc1O)N1CCN(c2nc(NCCN3CCOCC3)nc(N3CCOCC3)n2)CC1` stands 21.3 nM.
The same measure, in the same setting: under `O=S(=O)(c1cccc(Cl)c1)N1CCN(c2nc(NCCN3CCOCC3)nc(N3CCOCC3)n2)CC1` stands 37.5 nM; under `O=[N+]([O-])c1ccc(S(=O)(=O)N2CCN(c3nc(NCCN4CCOCC4)nc(N4CCOCC4)n3)CC2)cc1`, 33.6 nM.
For the compound `O=S(=O)(c1cccc(O)c1)N1CCN(c2nc(NCCN3CCOCC3)nc(N3CCOCC3)n2)CC1`, the 50% inhibitory concentration (IC50) was found to be 15.6 nM.
In the case of `O=S(=O)(c1ccccc1F)N1CCN(c2nc(NCCN3CCOCC3)nc(N3CCOCC3)n2)CC1`, the IC50 came to 123 nM.
The same measure, in the same setting: the value for `O=S(=O)(c1ccccc1Cl)N1CCN(c2nc(NCCN3CCOCC3)nc(N3CCOCC3)n2)CC1` was 55.4 nM; that for `O=[N+]([O-])c1ccccc1S(=O)(=O)N1CCN(c2nc(NCCN3CCOCC3)nc(N3CCOCC3)n2)CC1` was 42.2 nM; that for `COc1ccc(S(=O)(=O)N2CCN(c3nc(NCCN4CCOCC4)nc(N4CCOCC4)n3)CC2)cc1` was 8.9 nM.

A further assay deals with Serine/threonine-protein kinase mTOR (Homo sapiens, UniProt P42345). The assay is described as follows: Inhibition of mTOR (unknown origin) measured after 45 mins by LANCE Ultra assay.
In turn, `COc1cccc(S(=O)(=O)N2CCN(c3nc(NCCN4CCOCC4)nc(N4CCOCC4)n3)CC2)c1` showed an IC50 of 22.2 nM.
The compound `O=S(=O)(c1ccc(Cl)cc1)N1CCN(c2nc(NCCN3CCOCC3)nc(N3CCOCC3)n2)CC1` returned an IC50 of 28.2 nM.
With `O=S(=O)(c1ccc(F)cc1)N1CCN(c2nc(NCCN3CCOCC3)nc(N3CCOCC3)n2)CC1`, 35.3 nM corresponded to half-maximal inhibition (IC50).
The compound `O=S(=O)(c1ccccc1)N1CCN(c2nc(NCCN3CCOCC3)nc(N3CCOCC3)n2)CC1` came in with an IC50 of 70.4 nM.
In turn, `Cc1ccccc1S(=O)(=O)N1CCN(c2nc(NCCN3CCOCC3)nc(N3CCOCC3)n2)CC1` returned a half-maximal inhibitory concentration (IC50) of 32.3 nM.
The same measure, in the same setting: the value for `O=S(=O)(c1cccc(F)c1)N1CCN(c2nc(NCCN3CCOCC3)nc(N3CCOCC3)n2)CC1` was 93.7 nM; that for `O=[N+]([O-])c1cccc(S(=O)(=O)N2CCN(c3nc(NCCN4CCOCC4)nc(N4CCOCC4)n3)CC2)c1` was 76.8 nM; that for `COc1ccccc1S(=O)(=O)N1CCN(c2nc(NCCN3CCOCC3)nc(N3CCOCC3)n2)CC1` was 25.5 nM.
Still for that read-out and setting: under `Cc1ccc(S(=O)(=O)N2CCN(c3nc(NCCN4CCOCC4)nc(N4CCOCC4)n3)CC2)cc1` stands 12.8 nM; under `O=S(=O)(c1ccccc1O)N1CCN(c2nc(NCCN3CCOCC3)nc(N3CCOCC3)n2)CC1`, 32.5 nM.
Consider `O=[N+]([O-])c1ccc(S(=O)(=O)N2CCN(c3nc(NCCN4CCOCC4)nc(N4CCOCC4)n3)CC2)cc1`, for which half-maximal inhibition (IC50) required 41.8 nM.
Compound `O=S(=O)(c1cccc(O)c1)N1CCN(c2nc(NCCN3CCOCC3)nc(N3CCOCC3)n2)CC1` came in with an IC50 of 21.8 nM.
On the same count and under the same terms, the value for `O=S(=O)(c1ccccc1F)N1CCN(c2nc(NCCN3CCOCC3)nc(N3CCOCC3)n2)CC1` was 98.3 nM; that for `O=S(=O)(c1ccccc1Cl)N1CCN(c2nc(NCCN3CCOCC3)nc(N3CCOCC3)n2)CC1` was 35.3 nM.
For `O=[N+]([O-])c1ccccc1S(=O)(=O)N1CCN(c2nc(NCCN3CCOCC3)nc(N3CCOCC3)n2)CC1`, the IC50 was found to be 66.3 nM.
On to `COc1ccc(S(=O)(=O)N2CCN(c3nc(NCCN4CCOCC4)nc(N4CCOCC4)n3)CC2)cc1`, for which the 50% inhibitory concentration (IC50) is 20.8 nM.
